Source: article PMC10269165 (Antimicrobial Agents and Chemotherapy, 2023)

Tested on: MDR isolate of H. contortus, exsheathed L3 larvae
Assay: Larval motility assay (LMA), Worminator
Type: cell-based, Haemonchus contortus
Excerpt: The H. contortus isolates used were TxPh-2011-S (Texas A&M University, USA) and UGA MDR 2020 (University of Georgia Athens, USA). TxPh-2011-S (Texas A&M University, USA) was originally isolated from Pronghorn antelope in West Texas in 2011 and is fully drug susceptible, phenotypically determined by the DrenchRite larval development assay (LDA; Microbial Screening Technologies, Kemps Creek, Australia). To establish this as a laboratory isolate, it was initially passaged in goats at Texas A&M University and then at The University of Georgia using both goats and sheep, and it is currently maintained in lambs at Louisiana State University. A nemabiome assay ([69]) was conducted at the University of Calgary to confirm that the isolate is 100% H. contortus. The UGA MDR 2020 (University of Georgia Athens, USA) isolate is resistant to ivermectin, benzimidazoles, levamisole, and moxidectin, as determined by the DrenchRite LDA. To establish this as a laboratory isolate, feces collected from a sheep farm in Georgia with known history of multiple anthelmintic resistance were cultured. Two donor goats were infected with the larvae recovered, which were morphologically ([70]) identified as 89% H. contortus. A fecal egg count reduction test (FECRT) was then performed in the infected goats. First, a combination treatment with albendazole at 15 mg/kg and ivermectin at 0.4 mg/kg was performed, followed by a treatment with levamisole at 12 mg/kg. Later, and to confirm resistance to moxidectin, another treatment was administered using a dose of 0.4 mg/kg of moxidectin. Posttreatment feces were recovered, coprocultures were established, and L3 larvae were identified as 100% H. contortus. Resistance to all drugs was subsequently confirmed using a DrenchRite assay.
For LMAs, the first phase testing using compounds NSC133100 and NSC177383 was done using the Worminator system in parallel with the LDA. Initial stock solutions of 12.5 mM were prepared for each compound using 100% DMSO as a solvent. Initial stock solutions (25 μL) were then diluted in 475 μL of culture media to yield working stock solutions of 625.00, 156.30, 39.10, 9.80, 2.40, 0.60, 0.20, 0.04, and 0.00 μM in 5% DMSO for each drug. In plate, 200 μL of working stock solutions were then diluted in 800 μL of culture media, yielding concentrations of 125.00, 31.25, 7.81, 1.95, 0.49, 0.12, and 0.00 μM in 1% DMSO. For the second phase of testing, compounds showing anthelmintic activity with the LDA were tested in a second round at higher concentrations than in the first phase of testing. Initial stocks of 50 mM were prepared for compounds NSC133100, NSC177383, NSC145612, and NSC56410 using 100% DMSO as a solvent. Initial stock solutions (25-μL portions) were then diluted in 475 μL of culture media consisting of 65% Lauria-Bertani (LB) (Thermo Fisher Scientific, Branchburg, NJ), 25% NCTC (Sigma-Aldrich), 10% fetal bovine serum (Atlanta Biologicals, Flowery Branch, GA), Pen/Strep (Sigma-Aldrich) at a final concentration of […], and amphotericin B (Sigma-Aldrich) at a final concentration of […]. The working stock solutions yielded concentrations of 2,500.00, 625.00, 156.30, 39.10, 9.80, 2.40, and 0.00 μM in 5% DMSO for each compound. In each well in the plate, 200 μL of working stock solutions were then diluted in 800 μL of culture media, yielding final concentrations of 500.00, 125.00, 31.30, 7.81, 1.95, 0.49, and 0.00 μM in 1% DMSO.
For the motility assays, 24-well plates with inserts were used (Costar, catalog no. 3379; Corning, Inc., Corning, NY). Portions (640 μL) of culture media were added to each well, and approximately 50 exsheathed larvae contained in 160 μL of culture media in each insert. Once pretreatment readings were taken, 160 μL of the drug solution was added to the well, and another 40 μL was added to the insert, reaching the final concentrations described in the protocol above. All concentrations were tested in triplicate. […]

Structure (SMILES)	Percent inhibition of larval motility (15.625 µM, 1 hour) [%]	Percent inhibition of larval motility (15.625 µM, 4 hours) [%]	Percent inhibition of larval motility (15.625 µM, 24 hours) [%]	Percent inhibition of larval motility (15.625 µM, 48 hours) [%]	Percent inhibition of larval motility (15.625 µM, 72 hours) [%]	Percent inhibition of larval motility (15.625 µM, 96 hours) [%]	Percent inhibition of larval motility (15.625 µM, Initial) [%]	Percent inhibition of larval motility (31.25 µM, 1 hour) [%]	Percent inhibition of larval motility (31.25 µM, 4 hours) [%]	Percent inhibition of larval motility (31.25 µM, 24 hours) [%]	Percent inhibition of larval motility (31.25 µM, 48 hours) [%]	Percent inhibition of larval motility (31.25 µM, 72 hours) [%]	Percent inhibition of larval motility (31.25 µM, 96 hours) [%]	Percent inhibition of larval motility (31.25 µM, Initial) [%]	Percent inhibition of larval motility (62.5 µM, 4 hours) [%]	Percent inhibition of larval motility (62.5 µM, 24 hours) [%]	Percent inhibition of larval motility (62.5 µM, 48 hours) [%]	Percent inhibition of larval motility (125 µM, 1 hour) [%]	Percent inhibition of larval motility (125 µM, 4 hours) [%]	Percent inhibition of larval motility (125 µM, 24 hours) [%]	also measured
CO[C@H]1/C=C/O[C@@]2(C)Oc3c(C)c(O)c4c(O)c(cc(O)c4c3C2=O)NC(=O)/C(C)=C\C=C\[C@H](C)[C@H](O)[C@@H](C)[C@@H](O)[C@@H](C)[C@H](OC(C)=O)[C@@H]1C [NSC133100]	6.1	6.9	-6.8	-11.1	-11.7	-3.4	-7.4	6.3	1.6	0.6	11.9	3.1	5.5	-21.7	-11.1	-12.6	-2.3	33.8	3.0	-6.2	Percent inhibition of larval motility (125 µM, 48 hours): 18.4%; Percent inhibition of larval motility (125 µM, 72 hours): 14.0%; Percent inhibition of larval motility (125 µM, 96 hours): 26.6%; Percent inhibition of larval motility (125 µM, Initial): -12.3%; Percent inhibition of larval motility (250 µM, 1 hour): 38.9%; Percent inhibition of larval motility (250 µM, 24 hours): -12.4%; Percent inhibition of larval motility (250 µM, 48 hours): 28.6%; Percent inhibition of larval motility (250 µM, 96 hours): 0.9%; Percent inhibition of larval motility (250 µM, Initial): -11.5%; Percent inhibition of larval motility (500 µM, 1 hour): 33.9%; Percent inhibition of larval motility (500 µM, 4 hours): -2.0%; Percent inhibition of larval motility (500 µM, 24 hours): -0.5%; Percent inhibition of larval motility (500 µM, 48 hours): 22.2%; Percent inhibition of larval motility (500 µM, 72 hours): 12.1%; Percent inhibition of larval motility (500 µM, 96 hours): 18.5%; Percent inhibition of larval motility (500 µM, Initial): 5.8%
CO[C@@H]1/C=C/O[C@@]2(C)Oc3c(C)c(O)c4c(c3C2=O)C(=N[C@@H]2CC[C@@H](O)O[C@H]2C)C=C(NC(=O)/C(C)=C\C(=O)[C@@H]2C[C@@H]2[C@H](O)[C@@H](C)[C@@H](O)[C@@H](C)[C@H](OC(C)=O)[C@@H]1C)C4=O [NSC177383]	-22.8	-24.6	15.6	3.0	-5.8	-22.4	19.9	2.3	5.2	13.8	41.2	25.5	17.1	23.2	-28.6	23.5	26.0	26.8	-34.1	20.5	Percent inhibition of larval motility (125 µM, 48 hours): 31.1%; Percent inhibition of larval motility (125 µM, 72 hours): 4.1%; Percent inhibition of larval motility (125 µM, 96 hours): 5.7%; Percent inhibition of larval motility (125 µM, Initial): 22.5%; Percent inhibition of larval motility (250 µM, 1 hour): 28.8%; Percent inhibition of larval motility (250 µM, 24 hours): 30.2%; Percent inhibition of larval motility (250 µM, 48 hours): 44.8%; Percent inhibition of larval motility (250 µM, 96 hours): 31.2%; Percent inhibition of larval motility (250 µM, Initial): 43.9%; Percent inhibition of larval motility (500 µM, 1 hour): 27.1%; Percent inhibition of larval motility (500 µM, 4 hours): -12.9%; Percent inhibition of larval motility (500 µM, 24 hours): 26.6%; Percent inhibition of larval motility (500 µM, 48 hours): 49.1%; Percent inhibition of larval motility (500 µM, 72 hours): 32.3%; Percent inhibition of larval motility (500 µM, 96 hours): 21.4%; Percent inhibition of larval motility (500 µM, Initial): 36.4%
